Test results taken from patent US6562870B1 (priority 1994, dated 2003).
Like-named read-outs stand apart in the source and are kept apart here.

Tests used:
[1] = tested on: AIDS-associated NHL
Protocol: The daily dose is diluted in 1000 cc of 0.9% Sodium Chloride Injection, USP, or 5% Dextrose Injection, USP, for infusion over 24 hours.

[2] = in vivo; cited from earlier work
[3] = tested on: AS283 cells
Protocol: (§1) Both human tumor cell lines were maintained in RPMI 1640 medium plus 10% fetal calf serum. They were seeded in 15-ml rubber-stoppered vials containing 2 μCi of (^14C) glucose and 2 ml of tissue culture media. […] On days 6, 9 and 12, the vials were removed from the incubator and evaluated radiometrically for the amount of ^14CO2 produced. Inhibition of conversion of (^14C) glucose to ^14CO2 is a reliable index of cytotoxicity (Von Hoff et al., Cancer Res. 45:4032-4038, 1985).

[4] = tested on: Raji line lymphoblast-like cells
Protocol: as §1

[5] = stability of diluted infusion solutions; format: physicochemical; settings: in 0.9% Sodium Chloride Injection or 5% Dextrose Injection
[6] = tested on: advanced NHL; settings: cited from earlier work

In the case of `CC(/C=N/NC(=N)N)=N\NC(=N)N` [mitoguazone], the “response to previous treatment” value ([1]; same patient, before gallium nitrate) is reported as “essentially unresponsive”.
In the case of `O=[N+]([O-])[O-].O=[N+]([O-])[O-].O=[N+]([O-])[O-].[Ga+3]` [Gallium Nitrate, gallium nitrate], the blood-brain barrier passage [2] is listed as “crosses the blood-brain barrier”, the “% SURVIVAL AS283” value ([3]; final concentration 1 mcg/ml) is listed as 99% and the “% SURVIVAL AS283” value ([3]; final concentration 10 mcg/ml) is listed as 122%. For the same compound, the “% SURVIVAL AS283” value ([3]; final concentration 50 mcg/ml) was 58%, the “% SURVIVAL AS283” value ([3]; final concentration 100 mcg/ml) was 0% and the “% SURVIVAL RAJI” value ([4]; final concentration 1 mcg/ml) was 102%. The “% SURVIVAL RAJI” value ([4]; final concentration 10 mcg/ml) was 114%, the “% SURVIVAL RAJI” value ([4]; final concentration 100 mcg/ml) was 33% and the “stability of diluted solution” value ([5]; refrigeration (2-8° C.)) was 7 days. For the same compound, the “stability of diluted solution” value ([5]; room temperature (15-30° C.)) was 2 days, the drug-related adverse effects ([1]; 300 mg/sq m/day for 7 days iv, two courses) was “not accompanied by apparent drug-related adverse effects” and the “size of nodes after first course” value ([1]; 300 mg/sq m/day for 7 days, intravenous infusion, baseline nodes 9.0×9.0 cm and 3.0×2.0 cm) was “decreased in size”. For the same compound, the “infraclavicular node after second course” value ([1]; second course three weeks later, baseline 9.0×9.0 cm) was “not palpable at all”, the tolerability and efficacy ([6]; HIV negative patients with advanced NHL) was “well tolerated and effective” and the myelosuppression or immunosuppression ([6]; human, in vivo) was “little or no myelosuppression or immunosuppression”.
